Assay results reported in ChEMBL document CHEMBL5579877, “Design and Evaluation of 3-Phenyloxetane Derivative Agonists of the Glucagon-Like Peptide-1 Receptor” (J Med Chem, 2024).

System: not listed separately
Assay: Metabolic stability in human liver microsomes assessed as half life at […] incubated upto 45 mins in presence of NADPH by LC-MS/MS analysis
Assay type: ADME, Microsome

In order of rising half-life:
1. O=C(O)c1ccc2nc(CN3CCC(c4cccc(OCc5ccc(C6COC6)cn5)n4)CC3)n(C[C@@H]3CCO3)c2c1  0.717 h
2. O=C(O)c1ccc2nc(CN3CCC(c4cccc(OCc5ccc(C6COC6)cc5Cl)n4)CC3)n(C[C@@H]3CCO3)c2c1  2.06 h
3. COc1cc(C2COC2)ccc1COc1cccc(C2CCN(Cc3nc4ccc(C(=O)O)cc4n3C[C@@H]3CCO3)CC2)n1  2.56 h

Biological target: Glucagon-like peptide 1 receptor (Homo sapiens, UniProt P43220)
Sequence (P43220 whole entry): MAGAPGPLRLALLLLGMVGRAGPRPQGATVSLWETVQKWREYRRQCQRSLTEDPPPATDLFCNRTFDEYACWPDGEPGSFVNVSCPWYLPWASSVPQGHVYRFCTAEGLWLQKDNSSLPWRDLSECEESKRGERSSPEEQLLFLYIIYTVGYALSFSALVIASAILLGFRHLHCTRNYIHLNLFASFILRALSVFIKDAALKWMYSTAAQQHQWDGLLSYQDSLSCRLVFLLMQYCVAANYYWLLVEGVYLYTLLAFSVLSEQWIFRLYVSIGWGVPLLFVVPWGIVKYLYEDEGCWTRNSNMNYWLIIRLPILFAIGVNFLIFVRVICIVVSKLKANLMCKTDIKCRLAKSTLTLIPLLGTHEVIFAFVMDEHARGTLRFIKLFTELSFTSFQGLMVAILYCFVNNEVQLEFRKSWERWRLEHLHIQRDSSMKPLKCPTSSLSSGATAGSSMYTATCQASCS
Assay: Agonist activity at human GLP-1R expressed in HEK293 cells assessed as accumulation of cAMP preincubated for 30 mins followed by d2-labeled cAMP addition and anti-cAMP cryptate addition measured after 60 mins by HTRF assay
Assay type: functional, cell-based

First: O=C(O)c1ccc2nc(CN3CCC(c4cccc(OCc5ccc(C6(O)COC6)cc5)n4)CC3)n(C[C@@H]3CCO3)c2c1
Second: O=C(O)c1ccc2nc(CN3CCC(c4cccc(OCc5ccc(C6(F)COC6)cc5)n4)CC3)n(C[C@@H]3CCO3)c2c1
The EC50 of the first is 38-fold higher: 3.08 nM for the first, 0.08 nM for the second.

Compared with `O=C(O)c1ccc2nc(CN3CCC(c4cccc(OCc5ccc(C6COC6)cc5F)n4)CC3)n(CC3(F)CCC3)c2c1`, `O=C(O)c1ccc2nc(CN3CCC(c4cccc(OCc5ccc(C6COC6)cc5OCC(F)(F)F)n4)CC3)n(C[C@@H]3CCO3)c2c1` is 14-fold lower in EC50: 39 nM for the first, 2.8 nM for the second. The second is the more potent here.

First: N#CCC1(n2c(CC3CCC(c4cccc(OCc5ccc(C6COC6)cc5F)n4)CC3)nc3ccc(C(=O)O)cc32)CC1 (configuration not stated)
Second: CC(=O)c1ccc(COc2cccc(C3CCN(Cc4nc5ccc(C(=O)O)cc5n4C[C@@H]4CCO4)CC3)n2)c(F)c1
The EC50 of the first is 6.8-fold lower: 0.08 nM for the first, 0.54 nM for the second.

Compared with `CCC(=O)c1ccc(COc2cccc(C3CCN(Cc4nc5ccc(C(=O)O)cc5n4C[C@@H]4CCO4)CC3)n2)c(F)c1`, `CN1CCC(C(=O)c2ccc(COc3cccc(C4CCN(Cc5nc6ccc(C(=O)O)cc6n5C[C@@H]5CCO5)CC4)n3)c(F)c2)CC1` is higher in EC50: 0.95 nM for the first, > 1000 nM for the second. The first is the more potent here.

With `O=C(O)c1ccc2nc(CN3CCC(c4cccc(OCC5CCN(C6COC6)CC5)n4)CC3)n(C[C@@H]3CCO3)c2c1` the EC50 was 33.2 nM.
